Laboratory results as given in patent US20200316083A1, “ANTIBACTERIAL COMPOSITIONS” (WOCKHARDT LIMITED, priority 2016, published 2020).

Legend:
Type in all cases: cell-based
[1] = system: E. coli 7MP producing Class A and Class C beta-lactamase enzymes; test: Time kill study against E. coli 7MP; details: for Effect on bacterial count (in words): alone or in combination
Procedure: (§1) In general, the antibacterial activity of compositions according to invention was studied by performing time kill studies. In a typical time kill study, the freshly grown cultures were diluted to the required cell density (initial starting inoculum) in cation adjusted Muller Hinton broth medium (BD, USA). The antibacterial agents (either alone or in combination) at the required concentrations were added into the culture-containing medium. The samples were incubated under shaking condition (120 rpm) at 37° C. Enumeration of viable bacterial count was done every 2 hour by diluting in normal saline and plating on to the Tryptic Soya Agar plates (BD, USA). The plates were incubated for 24 hours to arrive at a viable bacterial count. The results are expressed in terms of log10 CFU/ml. In general, the decrease of 1 log10 CFU/ml corresponds to 90% killing of bacteria. Similarly, 2 log10 CFU/ml reductions indicates to 99% killing of bacteria and 3 log10 CFU/ml reductions is equal to 99.9% killing of bacteria.

[2] = system: K. pneumoniae B-88 producing metallo beta-lactamase enzymes; test: Time kill study against K. pneumoniae B-88; details: for Effect on bacterial count (in words): summary of Table 1, alone or in combination
Procedure: as §1

[3] = system: A. baumanni 13301 producing Carbapenem hydrolysing beta-lactamase enzymes; test: Time kill study against A. baumanni 13301; details: for Bacterial count (Log10 CFU/ml) 0 hours / Change in Log10 CFU/ml over 0 hour count after 24 hours / Bacterial count (Log10 CFU/ml) 2 hours / Bacterial count (Log10 CFU/ml) 4 hours / Bacterial count (Log10 CFU/ml) 6 hours / Bacterial count (Log10 CFU/ml) 8 hours / Bacterial count (Log10 CFU/ml) 24 hours: 4 mcg/ml alone; for Effect on bacterial count (in words): summary of Table 3, alone or in combination
Procedure: as §1

[4] = summary of Table 5, throughout the duration of the study

| Structure (SMILES) | Change in Log10 CFU/ml over 0 hour count after 24 hours ([1]; Table 2, 2 mcg/ml alone) | Bacterial count (Log10 CFU/ml) 2 hours ([1]; Table 2, 2 mcg/ml alone) | Bacterial count (Log10 CFU/ml) 4 hours ([1]; Table 2, 2 mcg/ml alone) | Bacterial count (Log10 CFU/ml) 6 hours ([1]; Table 2, 2 mcg/ml alone) | Bacterial count (Log10 CFU/ml) 24 hours ([1]; Table 2, 2 mcg/ml alone) | Effect on bacterial count (in words) ([1]; summary of Table 2) | Bacterial count (Log10 CFU/ml) 0 hours ([2]; 2 mcg/ml alone) | Change in Log10 CFU/ml over 0 hour count after 24 hours ([2]; 2 mcg/ml alone) | Bacterial count (Log10 CFU/ml) 2 hours ([2]; 2 mcg/ml alone) | Bacterial count (Log10 CFU/ml) 4 hours ([2]; 2 mcg/ml alone) | Bacterial count (Log10 CFU/ml) 6 hours ([2]; 2 mcg/ml alone) | Bacterial count (Log10 CFU/ml) 24 hours ([2]; 2 mcg/ml alone) | Effect on bacterial count (in words) [2] | Bacterial count (Log10 CFU/ml) 0 hours [3] | Change in Log10 CFU/ml over 0 hour count after 24 hours [3] | Bacterial count (Log10 CFU/ml) 2 hours [3] | Bacterial count (Log10 CFU/ml) 4 hours [3] | Bacterial count (Log10 CFU/ml) 6 hours [3] | Bacterial count (Log10 CFU/ml) 8 hours [3] | Bacterial count (Log10 CFU/ml) 24 hours [3] | further results |
| --- | --- | --- | --- | --- | --- | --- | --- | --- | --- | --- | --- | --- | --- | --- | --- | --- | --- | --- | --- | --- | --- |
| O=C(NNC(=O)[C@@H]1CC[C@@H]2CN1C(=O)N2OS(=O)(=O)O)[C@@H]1CCCNC1 [Compound (C)] | −3.54 Log10 CFU/ml | 6.30 Log10 CFU/ml | 4.93 Log10 CFU/ml | 4.23 Log10 CFU/ml | 3.54 Log10 CFU/ml | could not reduce the bacterial count | 7.28 Log10 CFU/ml | 1.26 Log10 CFU/ml | 7.60 Log10 CFU/ml | 8.26 Log10 CFU/ml | 8.18 Log10 CFU/ml | 8.54 Log10 CFU/ml | could not reduce the bacterial count | 6.88 Log10 CFU/ml | 2.35 Log10 CFU/ml | 8.13 Log10 CFU/ml | 8.85 Log10 CFU/ml | 9.19 Log10 CFU/ml | 9.02 Log10 CFU/ml | 9.23 Log10 CFU/ml | Effect on bacterial count (in words) [3]: could not reduce the bacterial count |
| O=C(O)[C@H]1/C(=C/CO)O[C@@H]2CC(=O)N21 [Clavulanic acid, reference compound] | – | – | – | – | – | – | – | – | – | – | – | – | – | – | – | – | – | – | – | – | Change in Log10 CFU/ml over 0 hour count after 8 hours ([1]; Table 5, 4 mcg/ml alone): 2.28 Log10 CFU/ml; Bacterial count (Log10 CFU/ml) 2 hours ([1]; Table 5, 4 mcg/ml alone): 7.90 Log10 CFU/ml; Bacterial count (Log10 CFU/ml) 4 hours ([1]; Table 5, 4 mcg/ml alone): 9.23 Log10 CFU/ml; Bacterial count (Log10 CFU/ml) 6 hours ([1]; Table 5, 4 mcg/ml alone): 9.30 Log10 CFU/ml; Bacterial count (Log10 CFU/ml) 8 hours ([1]; Table 5, 4 mcg/ml alone): 9.36 Log10 CFU/ml; Effect on bacterial count (in words) [1, 4]: did not reduce the bacterial count |
| O=C(NOC[C@@H]1CCCN1)[C@@H]1CC[C@@H]2CN1C(=O)N2OS(=O)(=O)O [Compound (D)] | 0.22 Log10 CFU/ml | 7.65 Log10 CFU/ml | 7.30 Log10 CFU/ml | 7.78 Log10 CFU/ml | 7.30 Log10 CFU/ml | could not reduce the bacterial count | 7.28 Log10 CFU/ml | 1.26 Log10 CFU/ml | 7.60 Log10 CFU/ml | 8.26 Log10 CFU/ml | 8.18 Log10 CFU/ml | 8.54 Log10 CFU/ml | could not reduce the bacterial count | 6.88 Log10 CFU/ml | 2.07 Log10 CFU/ml | 7.98 Log10 CFU/ml | 8.60 Log10 CFU/ml | 9.00 Log10 CFU/ml | 9.04 Log10 CFU/ml | 8.95 Log10 CFU/ml | Effect on bacterial count (in words) [3]: could not reduce the bacterial count |
| NCCONC(=O)[C@@H]1CC[C@@H]2CN1C(=O)N2OS(=O)(=O)O [Compound (E)] | 2.22 Log10 CFU/ml | 8.02 Log10 CFU/ml | 9.15 Log10 CFU/ml | 9.11 Log10 CFU/ml | 9.30 Log10 CFU/ml | could not reduce the bacterial count | 7.28 Log10 CFU/ml | 1.26 Log10 CFU/ml | 7.60 Log10 CFU/ml | 8.26 Log10 CFU/ml | 8.18 Log10 CFU/ml | 8.54 Log10 CFU/ml | could not reduce the bacterial count | 6.88 Log10 CFU/ml | 2.16 Log10 CFU/ml | 8.04 Log10 CFU/ml | 8.74 Log10 CFU/ml | 8.90 Log10 CFU/ml | 9.20 Log10 CFU/ml | 9.04 Log10 CFU/ml | Effect on bacterial count (in words) [3]: could not reduce the bacterial count |
| C[C@]1(Cn2ccnn2)[C@H](C(=O)O)N2C(=O)C[C@H]2S1(=O)=O [Tazobactam, reference compound] | – | – | – | – | – | – | – | – | – | – | – | – | – | – | – | – | – | – | – | – | Change in Log10 CFU/ml over 0 hour count after 8 hours ([1]; Table 5, 4 mcg/ml alone): 2.28 Log10 CFU/ml; Bacterial count (Log10 CFU/ml) 2 hours ([1]; Table 5, 4 mcg/ml alone): 7.90 Log10 CFU/ml; Bacterial count (Log10 CFU/ml) 4 hours ([1]; Table 5, 4 mcg/ml alone): 9.23 Log10 CFU/ml; Bacterial count (Log10 CFU/ml) 6 hours ([1]; Table 5, 4 mcg/ml alone): 9.30 Log10 CFU/ml; Bacterial count (Log10 CFU/ml) 8 hours ([1]; Table 5, 4 mcg/ml alone): 9.36 Log10 CFU/ml; Effect on bacterial count (in words) [1, 4]: did not reduce the bacterial count |
| NC(=O)[C@@H]1CC[C@@H]2CN1C(=O)N2OS(=O)(=O)O [Avibactam, reference compound] | – | – | – | – | – | – | – | – | – | – | – | – | – | – | – | – | – | – | – | – | Change in Log10 CFU/ml over 0 hour count after 8 hours ([1]; Table 5, 4 mcg/ml alone): 2.28 Log10 CFU/ml; Bacterial count (Log10 CFU/ml) 2 hours ([1]; Table 5, 4 mcg/ml alone): 7.90 Log10 CFU/ml; Bacterial count (Log10 CFU/ml) 4 hours ([1]; Table 5, 4 mcg/ml alone): 9.23 Log10 CFU/ml; Bacterial count (Log10 CFU/ml) 6 hours ([1]; Table 5, 4 mcg/ml alone): 9.30 Log10 CFU/ml; Bacterial count (Log10 CFU/ml) 8 hours ([1]; Table 5, 4 mcg/ml alone): 9.36 Log10 CFU/ml; Effect on bacterial count (in words) [1, 4]: did not reduce the bacterial count |
| C[C@@H](O)[C@H]1C(=O)N2C(C(=O)O)=C(SCCN=CN)C[C@H]12 [Imipenem, reference compound] | – | – | – | – | – | – | – | – | – | – | – | – | – | – | – | – | – | – | – | – | Bacterial count (Log10 CFU/ml) 0 hours ([2]; 8 mcg/ml alone): 7.28 Log10 CFU/ml; Change in Log10 CFU/ml over 0 hour count after 24 hours ([2]; 8 mcg/ml alone): 2.02 Log10 CFU/ml; Bacterial count (Log10 CFU/ml) 2 hours ([2]; 8 mcg/ml alone): 8.04 Log10 CFU/ml; Bacterial count (Log10 CFU/ml) 4 hours ([2]; 8 mcg/ml alone): 8.65 Log10 CFU/ml; Bacterial count (Log10 CFU/ml) 6 hours ([2]; 8 mcg/ml alone): 9.20 Log10 CFU/ml; Bacterial count (Log10 CFU/ml) 24 hours ([2]; 8 mcg/ml alone): 9.30 Log10 CFU/ml |
